Test results reported in patent publication US20240308976A1, “COMPOUNDS THAT MEDIATE PROTEIN DEGRADATION AND USES THEREOF” (Monte Rosa Therapeutics, Inc., priority 2021, published 2024).

Experiments:
CRBN-DDB1 = CRBN-DDB1 (Homo sapiens, UniProt Q96SW2); assay: Compound binding to CRBN by HTRF assay; conditions: CRBN-DDB1 2.5 nM, Cy5-Thalidomide 100 nM, 30 min at ambient temperature; read-out: HTRF Class (Cereblon binding, HTRF IC50)
How it was run: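 Cy5-thalidomide (100 nM) displacement from His-tagged CRBN-DDB1 (2.5 nM) read by terbium-cryptate HTRF (665/620 nm), in 20 mM HEPES, 20 mM NaCl, 0.2 mM TCEP, 0.2 mM EDTA, 0.005% Tween20. Compounds tested as 10-point 1:3 series, 30 min at ambient temperature. Signal normalised to DMSO and lenalidomide controls; IC50 fitted, Ki by Cheng-Prusoff.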

GSPT1 = biological target: T1, GSPT1 (Homo sapiens, UniProt P15170+Q96SW2); assay: Immunofluorescence assay for activity to degrade GSPT1 in CAL-51 cells; type: cell-based; conditions: 6 h treatment, read-out: IF Class (GSPT1 degradation, DC50)
T1 construct: CAL-51 cells were purchased from DSMZ (cat. Number ACC302); host or cells: CAL-51
T1 sequence (P15170 whole entry): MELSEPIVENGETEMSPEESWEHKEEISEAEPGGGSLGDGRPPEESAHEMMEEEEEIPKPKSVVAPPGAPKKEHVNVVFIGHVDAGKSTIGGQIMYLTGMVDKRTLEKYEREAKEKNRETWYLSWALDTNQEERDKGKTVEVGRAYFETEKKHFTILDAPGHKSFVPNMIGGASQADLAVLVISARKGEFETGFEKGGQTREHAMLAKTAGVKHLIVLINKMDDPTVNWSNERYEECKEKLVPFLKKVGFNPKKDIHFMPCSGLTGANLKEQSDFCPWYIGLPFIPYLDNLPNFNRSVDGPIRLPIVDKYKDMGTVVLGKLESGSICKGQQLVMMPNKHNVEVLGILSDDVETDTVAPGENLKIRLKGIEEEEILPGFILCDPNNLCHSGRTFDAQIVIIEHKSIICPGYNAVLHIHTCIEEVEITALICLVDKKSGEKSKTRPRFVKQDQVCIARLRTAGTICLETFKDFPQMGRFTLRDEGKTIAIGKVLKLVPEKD
T1 sequence (Q96SW2 whole entry): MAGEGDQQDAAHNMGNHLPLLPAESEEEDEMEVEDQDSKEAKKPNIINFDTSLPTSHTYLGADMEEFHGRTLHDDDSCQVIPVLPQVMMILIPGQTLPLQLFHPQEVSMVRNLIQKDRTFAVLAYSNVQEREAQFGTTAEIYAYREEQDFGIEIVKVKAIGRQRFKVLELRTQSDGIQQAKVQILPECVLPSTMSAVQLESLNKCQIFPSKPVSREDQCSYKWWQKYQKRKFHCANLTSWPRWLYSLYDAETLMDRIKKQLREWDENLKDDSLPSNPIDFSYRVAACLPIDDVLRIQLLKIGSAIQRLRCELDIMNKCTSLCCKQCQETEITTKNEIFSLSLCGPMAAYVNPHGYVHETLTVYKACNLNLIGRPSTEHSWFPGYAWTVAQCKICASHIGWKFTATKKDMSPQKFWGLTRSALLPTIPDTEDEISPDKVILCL
T1 sequence (Q16531 2-1140 partner limits assumed): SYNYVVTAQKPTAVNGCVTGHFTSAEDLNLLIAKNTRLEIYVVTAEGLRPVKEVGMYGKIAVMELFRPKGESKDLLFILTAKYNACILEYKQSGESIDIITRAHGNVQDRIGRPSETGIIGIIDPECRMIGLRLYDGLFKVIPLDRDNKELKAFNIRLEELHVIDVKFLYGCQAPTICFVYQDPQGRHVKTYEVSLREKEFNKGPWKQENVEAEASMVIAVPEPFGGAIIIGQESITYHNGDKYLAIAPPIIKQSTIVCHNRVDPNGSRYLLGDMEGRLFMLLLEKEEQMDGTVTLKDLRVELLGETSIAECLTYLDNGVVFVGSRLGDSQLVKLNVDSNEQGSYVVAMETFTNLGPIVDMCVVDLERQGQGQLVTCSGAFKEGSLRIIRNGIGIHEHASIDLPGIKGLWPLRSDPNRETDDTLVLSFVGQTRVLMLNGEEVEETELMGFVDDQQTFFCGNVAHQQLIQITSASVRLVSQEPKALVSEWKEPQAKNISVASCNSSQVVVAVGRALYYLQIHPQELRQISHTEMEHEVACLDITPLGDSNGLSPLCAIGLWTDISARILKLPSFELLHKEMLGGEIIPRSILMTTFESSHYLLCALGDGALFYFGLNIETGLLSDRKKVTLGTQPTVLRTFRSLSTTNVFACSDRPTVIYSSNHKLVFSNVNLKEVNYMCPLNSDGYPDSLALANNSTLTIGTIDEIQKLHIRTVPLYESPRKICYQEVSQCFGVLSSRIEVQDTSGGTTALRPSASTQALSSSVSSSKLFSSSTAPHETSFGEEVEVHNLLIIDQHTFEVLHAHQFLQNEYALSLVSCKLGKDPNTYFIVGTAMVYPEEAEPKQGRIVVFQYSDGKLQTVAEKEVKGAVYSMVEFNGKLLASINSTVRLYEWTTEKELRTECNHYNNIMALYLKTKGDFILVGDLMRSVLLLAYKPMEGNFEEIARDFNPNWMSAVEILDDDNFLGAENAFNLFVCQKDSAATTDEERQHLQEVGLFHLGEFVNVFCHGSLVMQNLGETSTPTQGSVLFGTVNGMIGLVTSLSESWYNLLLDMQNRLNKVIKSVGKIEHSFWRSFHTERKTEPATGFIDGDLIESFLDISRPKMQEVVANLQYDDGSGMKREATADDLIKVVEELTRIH
How it was run: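 CAL-51 cells treated 6 h with compound (30 μM to 0.1 nM), fixed, immunostained for GSPT1 with DAPI and phalloidin counterstains, imaged by high-content microscopy. Mean per-cell GSPT1 intensity normalized to controls; DC50 by non-linear regression.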

CRBN-DDB1, sequence (Q96SW2 whole entry): as the sequence (Q96SW2 whole entry) above
CRBN-DDB1, sequence (Q16531 whole entry partner): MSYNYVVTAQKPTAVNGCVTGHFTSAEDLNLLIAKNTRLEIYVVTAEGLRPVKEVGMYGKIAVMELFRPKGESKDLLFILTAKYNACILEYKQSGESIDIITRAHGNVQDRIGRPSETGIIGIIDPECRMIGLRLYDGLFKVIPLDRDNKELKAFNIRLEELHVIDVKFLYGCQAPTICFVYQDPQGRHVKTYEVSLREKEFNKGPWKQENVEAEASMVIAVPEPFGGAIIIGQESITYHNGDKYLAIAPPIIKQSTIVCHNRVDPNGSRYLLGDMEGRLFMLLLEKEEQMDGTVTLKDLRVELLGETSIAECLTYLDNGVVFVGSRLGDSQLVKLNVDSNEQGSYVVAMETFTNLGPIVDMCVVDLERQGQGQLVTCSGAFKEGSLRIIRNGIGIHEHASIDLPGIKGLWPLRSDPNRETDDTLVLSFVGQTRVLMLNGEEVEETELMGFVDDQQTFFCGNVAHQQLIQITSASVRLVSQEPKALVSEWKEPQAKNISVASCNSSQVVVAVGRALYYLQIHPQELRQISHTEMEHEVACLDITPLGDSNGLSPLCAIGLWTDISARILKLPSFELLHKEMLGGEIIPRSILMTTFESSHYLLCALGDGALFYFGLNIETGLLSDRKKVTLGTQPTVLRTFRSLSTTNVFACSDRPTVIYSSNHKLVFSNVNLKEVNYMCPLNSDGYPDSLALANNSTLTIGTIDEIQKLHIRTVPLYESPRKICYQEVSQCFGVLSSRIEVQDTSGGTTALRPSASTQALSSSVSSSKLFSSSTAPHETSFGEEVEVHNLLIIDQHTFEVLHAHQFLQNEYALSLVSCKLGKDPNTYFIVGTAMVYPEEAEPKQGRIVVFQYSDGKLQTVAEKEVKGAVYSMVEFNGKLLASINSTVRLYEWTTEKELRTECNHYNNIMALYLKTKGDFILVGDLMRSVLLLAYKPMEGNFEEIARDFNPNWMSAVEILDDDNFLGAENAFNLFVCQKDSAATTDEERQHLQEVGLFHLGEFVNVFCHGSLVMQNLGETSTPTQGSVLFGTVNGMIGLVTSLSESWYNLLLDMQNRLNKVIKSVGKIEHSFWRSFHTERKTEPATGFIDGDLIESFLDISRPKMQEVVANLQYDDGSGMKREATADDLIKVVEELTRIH

Structure (SMILES)	IC50 (CRBN-DDB1) [µM]	DC50 (GSPT1) [µM]
O=C1CCC(c2ccc(N3CC(NC(=O)Nc4cccc(OC(F)(F)F)c4)C3)cc2Cl)C(=O)N1 (stereo not shown) [Compound 41, 1-(1-(3-chloro-4-(2,6-dioxopiperidin-3-yl)phenyl)azetidin-3-yl)-3-(3-(trifluoromethoxy)phenyl)urea]	0.1 to 1	> 0.3
Cc1ccc(NC(=O)NC2CN(c3ccc(C4CCC(=O)NC4=O)c(Cl)c3)C2)cc1Cl (stereo not shown) [Compound 42, 1-(1-(3-chloro-4-(2,6-dioxopiperidin-3-yl)phenyl)azetidin-3-yl)-3-(3-chloro-4-methylphenyl)urea]	0.1 to 1	0.03 to 0.3
CC1(c2ccc(NC(=O)OC3CN(c4cc(F)c(C5CCC(=O)NC5=O)c(F)c4)C3)cn2)CC1 (stereo not shown) [Compound 43, 1-(4-(2,6-dioxopiperidin-3-yl)-3,5-difluorophenyl)azetidin-3-yl(6-(1-methylcyclopropyl)pyridin-3-yl) carbamate]	0.1 to 1	≤ 0.03
O=C1CCC(c2c(F)cc(N3CC(OC(=O)Nc4cc(F)cc(OC(F)F)c4)C3)cc2F)C(=O)N1 (stereo not shown) [Compound 44, 1-(4-(2,6-dioxopiperidin-3-yl)-3,5-difluorophenyl)azetidin-3-yl (3-(difluoromethoxy)-5-fluorophenyl)carbamate]	0.1 to 1	0.03 to 0.3
O=C1CCC(c2c(F)cc(N3CC(OC(=O)Nc4ccc(-c5ccccn5)cc4)C3)cc2F)C(=O)N1 (stereo not shown) [Compound 45, 1-(4-(2,6-dioxopiperidin-3-yl)-3,5-difluorophenyl)azetidin-3-yl (4-(pyridin-2-yl)phenyl)carbamate]	0.1 to 1	≤ 0.03
COc1c(N2CC(OC(=O)Nc3ccc(C)c(Cl)c3)C2)cc(F)c(C2CCC(=O)NC2=O)c1F (stereo not shown) [Compound 46, 1-(4-(2,6-dioxopiperidin-3-yl)-3,5-difluoro-2-methoxyphenyl)azetidin-3-yl (3-chloro-4-methylphenyl) carbamate]	0.1 to 1	0.03 to 0.3
N#Cc1cc(Cl)cc(NC(=O)OC2CN(c3cc(F)c(C4CCC(=O)NC4=O)c(F)c3)C2)c1 (stereo not shown) [Compound 47, 1-(4-(2,6-dioxopiperidin-3-yl)-3,5-difluorophenyl)azetidin-3-yl(3-chloro-5-cyanophenyl)carbamate]	0.1 to 1	0.03 to 0.3
Cc1cc(NC(=O)OC2CN(c3cc(F)c(C4CCC(=O)NC4=O)c(F)c3)C2)cc(C)c1C#N (stereo not shown) [Compound 48, 1-(4-(2,6-dioxopiperidin-3-yl)-3,5-difluorophenyl)azetidin-3-yl (4-cyano-3,5-dimethylphenyl) carbamate]	0.1 to 1	≤ 0.03
Cc1cc(C#N)cc(NC(=O)OC2CN(c3cc(F)c(C4CCC(=O)NC4=O)c(F)c3)C2)c1 (stereo not shown) [Compound 49, 1-(4-(2,6-dioxopiperidin-3-yl)-3,5-difluorophenyl)azetidin-3-yl (3-cyano-5-methylphenyl) carbamate]	0.1 to 1	0.03 to 0.3
O=C1CCC(c2c(F)cc(N3CC(NC(=O)Nc4cc(F)cc(OC(F)(F)F)c4)C3)cc2F)C(=O)N1 (stereo not shown) [Compound 50, 1-(1-(4-(2,6-dioxopiperidin-3-yl)-3,5-difluorophenyl)azetidin-3-yl)-3-(3-fluoro-5-(trifluoromethoxy)phenyl)urea]	0.1 to 1	0.03 to 0.3
O=C1CCC(c2c(F)cc(N3CC(OC(=O)Nc4cnc(-c5ccccc5)nc4)C3)cc2F)C(=O)N1 (stereo not shown) [Compound 51, 1-(4-(2,6-dioxopiperidin-3-yl)-3,5-difluorophenyl)azetidin-3-yl(2-phenylpyrimidin-5-yl)carbamate]	0.1 to 1	≤ 0.03
Cc1c(Cl)cc(NC(=O)OC2CN(c3cc(F)c(C4CCC(=O)NC4=O)c(F)c3)C2)cc1OCCN1CCOCC1 (stereo not shown) [Compound 52, 1-(4-(2,6-dioxopiperidin-3-yl)-3,5-difluorophenyl)azetidin-3-yl(3-chloro-4-methyl-5-(2-morpholinoethoxy)phenyl)carbamate]	0.1 to 1	≤ 0.03
Cc1c(Cl)cc(NC(=O)OC2CN(c3cc(F)c(C4CCC(=O)NC4=O)c(F)c3)C2)cc1C#N (stereo not shown) [Compound 53, 1-(4-(2,6-dioxopiperidin-3-yl)-3,5-difluorophenyl)azetidin-3-yl(3-chloro-5-cyano-4-methylphenyl) carbamate]	0.1 to 1	0.03 to 0.3
Cc1ccc(NC(=O)OC2CN(c3ccc(C4CCC(=O)NC4=O)c(Cl)c3F)C2)cc1Cl (stereo not shown) [Compound 54, 1-(3-chloro-4-(2,6-dioxopiperidin-3-yl)-2-fluorophenyl)azetidin-3-yl(3-chloro-4-methylphenyl)carbamate]	> 1	0.03 to 0.3
Cc1ccc(NC(=O)OC2CN(c3ccc(C4CCC(=O)NC4=O)cc3)C2)cc1Cl (stereo not shown) [Compound 55, 1-(4-(2,6-dioxopiperidin-3-yl)phenyl)azetidin-3-yl (3-chloro-4-methylphenyl)carbamate]	> 1	0.03 to 0.3
COc1cc(C2CCC(=O)NC2=O)c(Cl)cc1N1CC(OC(=O)Nc2ccc(C)c(Cl)c2)C1 (stereo not shown) [Compound 56, 1-(5-chloro-4-(2,6-dioxopiperidin-3-yl)-2-methoxyphenyl)azetidin-3-yl (3-chloro-4-methylphenyl)carbamate]	> 1	0.03 to 0.3
Cc1ccc(NC(=O)OC2CN(c3ccc(C4CCC(=O)NC4=O)c(C#N)c3)C2)cc1Cl (stereo not shown) [Compound 57, 1-(3-cyano-4-(2,6-dioxopiperidin-3-yl)phenyl)azetidin-3-yl(3-chloro-4-methylphenyl)carbamate]	> 1	0.03 to 0.3
CC1(c2ccc(NC(=O)OC3CN(c4cc(F)c(C5CCC(=O)NC5=O)c(F)c4)C3)cc2)CC1 (stereo not shown) [Compound 58, 1-(4-(2,6-dioxopiperidin-3-yl)-3,5-difluorophenyl)azetidin-3-yl (4-(1-methylcyclopropyl)phenyl)carbamate]	0.1 to 1	0.03 to 0.3
COc1c(N2CC(OC(=O)Nc3ccc(C)c(Cl)c3)C2)ccc(C2CCC(=O)NC2=O)c1Cl (stereo not shown) [Compound 59, 1-(3-chloro-4-(2,6-dioxopiperidin-3-yl)-2-methoxyphenyl)azetidin-3-yl (3-chloro-4-methylphenyl)carbamate]	> 1	> 0.3
CC1(c2ccc(NC(=O)NC3CN(c4cc(F)c(C5CCC(=O)NC5=O)c(F)c4)C3)cc2)CC1 (stereo not shown) [Compound 60, 1-(1-(4-(2,6-dioxopiperidin-3-yl)-3,5-difluorophenyl)azetidin-3-yl)-3-(4-(1-methylcyclopropyl)phenyl)urea]	0.1 to 1	≤ 0.03
O=C1CCC(c2c(F)cc(N3CC(OC(=O)NC45CC(c6ccccc6)(C4)C5)C3)cc2F)C(=O)N1 (stereo not shown) [Compound 61, 1-(4-(2,6-dioxopiperidin-3-yl)-3,5-difluorophenyl)azetidin-3-yl(3-phenylbicyclo[1.1.1]pentan-1-yl) carbamate]	0.1 to 1	≤ 0.03
O=C1CCC(c2c(F)cc(N3CC(OC(=O)NC45CC(F)(C4)C5)C3)cc2F)C(=O)N1 (stereo not shown) [Compound 62, 1-(4-(2,6-dioxopiperidin-3-yl)-3,5-difluorophenyl)azetidin-3-yl(3-fluorobicyclo[1.1.1]pentan-1-yl)carbamate]	0.1 to 1	> 0.3
O=C1CCC(c2c(F)cc(N3CC(OC(=O)NC45CC(C4)C5)C3)cc2F)C(=O)N1 (stereo not shown) [Compound 63, 1-(4-(2,6-dioxopiperidin-3-yl)-3,5-difluorophenyl)azetidin-3-yl bicyclo[1.1.1]pentan-1-ylcarbamate]	0.1 to 1	> 0.3
Cc1cc(NC(=O)OC2CN(c3cc(F)c(C4CCC(=O)NC4=O)c(F)c3)C2)cc(CN2CC3CC2CO3)c1C (stereo not shown) [Compound 64, 1-(4-(2,6-dioxopiperidin-3-yl)-3,5-difluorophenyl)azetidin-3-yl(3-(2-oxa-5-azabicyclo[2.2.1]heptan-5-ylmethyl)-4,5-dimethylphenyl) carbamate]	≤ 0.1	≤ 0.03
O=C1CCC(c2c(F)cc(N3CC(OC(=O)NC45CC(N6CCCCC6)(C4)C5)C3)cc2F)C(=O)N1 (stereo not shown) [Compound 65, 1-(4-(2,6-dioxopiperidin-3-yl)-3,5-difluorophenyl)azetidin-3-yl (3-(piperidin-1-yl)bicyclo[1.1.1]pentan-1-yl) carbamate]	≤ 0.1	≤ 0.03
Cc1ccc(NC(=O)NC2CN(c3ccc(C4CCC(=O)NC4=O)cc3)C2)cc1Cl (stereo not shown) [Compound 66, 1-(3-chloro-4-methylphenyl)-3-(1-(4-(2,6-dioxopiperidin-3-yl)phenyl)azetidin-3-yl)urea]	0.1 to 1	0.03 to 0.3
Cc1cc(C)cc(NC(=O)NC2CN(c3ccc(C4CCC(=O)NC4=O)cc3)C2)c1 (stereo not shown) [Compound 67, 1-(3,5-dimethylphenyl)-3-(1-(4-(2,6-dioxopiperidin-3-yl)phenyl)azetidin-3-yl)urea]	0.1 to 1	0.03 to 0.3
O=C1CCC(c2c(F)cc(N3CC(OC(=O)NC45CC(CF)(C4)C5)C3)cc2F)C(=O)N1 (stereo not shown) [Compound 68, 1-(4-(2,6-dioxopiperidin-3-yl)-3,5-difluorophenyl)azetidin-3-yl (3-(fluoromethyl)bicyclo[1.1.1]pentan-1-yl) carbamate]	≤ 0.1	0.03 to 0.3
COc1ccc(C(F)(F)C23CC(NC(=O)OC4CN(c5cc(F)c(C6CCC(=O)NC6=O)c(F)c5)C4)(C2)C3)cc1 (stereo not shown) [Compound 69, 1-(4-(2,6-dioxopiperidin-3-yl)-3,5-difluorophenyl)azetidin-3-yl (3-(difluoro(4-methoxyphenyl)methyl)bicyclo[1.1.1]pentan-1-yl)carbamate]	0.1 to 1	≤ 0.03
